Measurements published in US20220153780A1, “SALT FORMS OF S-(N, N-DIETHYLCARBAMOYL)GLUTATHIONE” (Tonix Pharma Holdings Limited, priority 2019, published 2022).
“Also recorded” adds a separate entry of the source.

Tests used:
Assay type in all cases: physicochemical
[1] = Water solubility observed in slurry experiment in water; details: room temperature; equimolar L-lysine adduct
Description: (§1) Carbamathione (50 mg) and one equivalent of L-Lysine were weighed in an 8-mL glass vial. Water (1-2 mL) was added and the mixture was allowed to stir for 24 hours. The equimolar mixture of carbamathione and L-Lysine was soluble in water and no precipitate was observed after 24 hours of stirring. The solution was left to evaporate at high temperature (60° C.) and an off-white solid was isolated. XRPD analysis confirmed the recovery of new derivative TNX1001-LLYS-NP01 (FIG. 15).
The synthesis of the new derivative, TNX1001-LLYS-NP01, was carried out to facilitate its complete characterization. TNX1001-SM (150 mg) and L-Lysine (1 eq., 54 mg) were accurately weighed in a vial equipped with a magnetic stirring bar. H2O (3 ml) was added and the mixture was stirred at room temperature for 4 hours until a clear solution was obtained. The solution was filtered through a 0.45 μm RC-filter and the filtrate was evaporated at high temperature (60° C.). The recovered off-white solid was compared with the sample that was obtained from the slurry experiments in water by XRPD analysis to confirm the recovery of desired derivative (FIG. 26). The product was completely characterized using the methods outlined in Table 8 (see FIGS. 27-33).

[2] = Stability studies, one month storage at controlled temperature and humidity, XRPD
Description: Approximately 50 mg of the anhydrous carbamathione lysine salt was placed in a glass vial crimped with a PTFE/silicone septum and stored at the desired temperature and humidity for one month. Controlled humidity was realized employing saturated solutions of salts: NaCl for 75% RH at 40° C. and NaBr for 60% RH at 25° C. After storage, the samples were analyzed by XRPD analysis. Each stability test was performed in duplicate.

[3] = Dissolution temperature in buffers (Crystal16) and estimated solubility at 25° C.
Description: Three different buffer solutions were prepared according to European Pharmacopoeia procedures (pH 1.2), or by diluting commercially available concentrate buffer solutions (pH 4.5 and 6.8).
Phosphate buffer at pH 6.8 was prepared by diluting a commercially available concentrate solution (Reagecon) with HPLC grade water. The final pH was adjusted using a 1 M NaOH solution.
Acetate buffer at pH 4.5 was prepared by diluting a commercially available concentrate solution (Reagecon) with HPLC grade water. The final pH was adjusted using concentrated acetic acid and a 1 M NaOH solution.
A buffer at pH 1.2 was prepared by mixing NaCl (0.2 M, 125 mL) and HCl (0.2 M, 212.5 mL) solutions followed by adjusting the volume to 500 mL. The pH was adjusted with a 1 M NaOH solution.
The determination of the dissolution temperature was performed in the automatic reactor system Crystal16. The system allows for careful control of the temperature and is equipped with a turbidimeter enabling the detection of the complete dissolution of the solid. The proper amount of compound was accurately weighted in a 1.5 mL vial equipped with a magnetic stirring bar. The selected buffer solution was pre-cooled in a refrigerator and the proper volume was added to the vial. The suspension was placed in the automatic reactor system pre-cooled at 10° C. and stirred at 600 rpm. The temperature was kept constant for 5 minutes to allow the system to equilibrate. The temperature was then increased at 0.5° C./min until a clear solution was obtained. For each pH, four solutions with increasing concentration were prepared and subjected to the same temperature program.
Although this is incorrect from a theoretical point of view, the closeness of the experimental value at 24° C. limited the error made by using this simple approximation.
Although this is incorrect from a theoretical point of view, the closeness of the experimental value at 26° C. limited the error made by using this simple approximation.

[4] = Dynamic vapor sorption (DVS) analysis
Description: The anhydrous carbamathione lysine salt (TNX1001-LLYS-NP01) was subjected to dynamic vapor sorption (DVS) analysis (FIG. 35). […] Similarly, the desorption curves display a clear decrease in mass between 30% and 20% RH. This behavior is consistent with a compound forming a hydrate species. Additionally, based on the water uptake of approximately 6.1% w/w at 70% RH, the hydrated form of the salt is likely a dihydrate species (FIG. 36).
The sorption/desorption cycle was performed twice.

[5] = Solid form stability by XRPD (ambient conditions, humidity, drying)
Description: as §1
After 24 hours of stirring, the solid was collected and analyzed by XRPD, and a new diffraction pattern was observed (FIG. 18). This new pattern was labeled as TNX1001-LLYS-NP02. […] After the drying step, the sample was exposed to humidity for 24 hours and the diffractogram acquired again.
From the experiments carried out with L-lysine in organic media, a second new diffraction pattern was also observed, in particular when an equimolar mixture of TNX1001-SM and L-lysine co-former was slurried at room temperature for 24 hours in Methanol or Dichloromethane (TNX1001-LLYS-NP02).

water solubility as compared to free carbamathione [1]: clear improvement
solid state stability (XRPD) ([2]; one month at 25° C. and 60% RH): stable
solid state stability (XRPD) ([2]; one month at 40° C. and 75% RH): stable
Solubility TNX1001-LYS ([3]; pH 1.2): Not stable. TNX1001
stability in buffer ([3]; pH 1.2 (NaCl/HCl buffer), converted into the parent carbamathione): not stable
Tdiss. ([3]; pH 1.2 buffer, Conc. TNX1001-LYS 297 mg/mL (79 after dilution)): Dissolve and re-precipitate
Tdiss. ([3]; pH 1.2 buffer, Conc. TNX1001-LYS 349 mg/mL, after dilution to 93 mg/mL): Dissolves above 80 °C
Tdiss. ([3]; pH 1.2 buffer, Conc. TNX1001-LYS 400 mg/mL, after dilution to 107 mg/mL): Dissolves above 80 °C
Tdiss. ([3]; pH 1.2 buffer, Conc. TNX1001-LYS 455 mg/mL, after dilution to 121 mg/mL): Dissolves above 80 °C
solubility increase compared with free carbamathione ([3]; pH 4.5, 25° C.): approximately 17%
Solubility TNX1001-LYS ([3]; pH 4.5, 25° C., estimated by linear approximation, equivalent amount of TNX1001 dissolved): 299 mg/mL of TNX1001
Tdiss. ([3]; pH 4.5 acetate buffer, Conc. TNX1001-LYS 249 mg/mL): <10 °C
Tdiss. ([3]; pH 4.5 acetate buffer, Conc. TNX1001-LYS 299 mg/mL): 16 °C
Tdiss. ([3]; pH 4.5 acetate buffer, Conc. TNX1001-LYS 356 mg/mL): 26 °C
Tdiss. ([3]; pH 4.5 acetate buffer, Conc. TNX1001-LYS 401 mg/mL): 33 °C
solubility increase compared with free carbamathione ([3]; pH 6.8, 25° C.): approximately 10%
Solubility TNX1001-LYS ([3]; pH 6.8, 25° C., estimated by linear approximation, equivalent amount of TNX1001 dissolved): 255 mg/mL of TNX1001
Tdiss. ([3]; pH 6.8 phosphate buffer, Conc. TNX1001-LYS 199 mg/mL): <10 °C
Tdiss. ([3]; pH 6.8 phosphate buffer, Conc. TNX1001-LYS 223 mg/mL): <10 °C
Tdiss. ([3]; pH 6.8 phosphate buffer, Conc. TNX1001-LYS 340 mg/mL): 24 °C
Tdiss. ([3]; pH 6.8 phosphate buffer, Conc. TNX1001-LYS 397 mg/mL): 33 °C
water uptake (DVS) ([4]; at 70% RH): approximately 6.1 % w/w
water uptake and water release over two sorption/desorption cycles ([4]; hydrated and anhydrous species): reversibly
stability of the solid form under ambient conditions (XRPD) ([5]; after 24 hours and up to 4 days): good stability; also recorded: stable
Structure (SMILES): CCN(CC)C(=O)SC[C@H](NC(=O)CC[C@H](N)C(=O)O)C(=O)NCC(=O)O.NCCCC[C@H](N)C(=O)O [TNX1001-LLYS-NP01]
solid form after exposure of the dried sample to humidity (XRPD) ([5]; approximately 24 hours, ambient conditions): converted spontaneously to initial form TNX1001-LLYS-NP02; also recorded: reconversion of the NP01 form into the NP02 form
